From the supplement of paper PMC13380429

What was measured:
A549-ACE2 [1] = assay: phospholipidosis EC50; higher = less potent phospholipidosis inducer
U2OS [2] = assay: cell viability relative to DMSO; higher = less toxic; conditions: 72 h
Vero E6 [3] = assay: as above; conditions: 72 h
Calu-3 [4] = assay: as above; conditions: 72 h
Caco-2 [5] = assay: as above; conditions: 72 h
HepG2 [6] = assay: as above; conditions: 72 h
[7] = test system: A549-ACE2 infected with SARS-CoV-2; assay: morphology score (similarity to uninfected cells); higher = more like uninfected cells; conditions: 24 h
[8] = test system: A549-ACE2 infected with SARS-CoV-2; assay: cell count relative to DMSO; higher = less toxic; conditions: 24 h
A549-ACE2 [9] = assay: drug-induced phospholipidosis relative to tamoxifen; higher = more phospholipidosis
[10] = test system: A549-ACE2 infected with SARS-CoV-2; assay: SARS-CoV-2 infection rate relative to DMSO; higher = more infection; conditions: 24 h
U2OS [11] = assay: drug sensitivity score (DSS) for viability; higher = more toxic; extreme values may be limits of the assay; conditions: 72 h
Vero E6 [12] = assay: as above; conditions: 72 h
Calu-3 [13] = assay: as above; conditions: 72 h
Caco-2 [14] = assay: as above; conditions: 72 h
HepG2 [15] = assay: as above; conditions: 72 h
U2OS [16] = assay: relative viability EC50 (midpoint between 100% and the lowest measured viability); higher = less toxic; conditions: 72 h
Vero E6 [17] = assay: as above; conditions: 72 h
Caco-2 [18] = assay: as above; conditions: 72 h
HepG2 [19] = assay: as above; conditions: 72 h
Calu-3 [20] = assay: as above; conditions: 72 h

CC(C)(C)c1ccc(C(=O)CCCN2CCC(OC(c3ccccc3)c3ccccc3)CC2)cc1 [ebastine]
Conditions | SARS-CoV-2 infection rate [%] | cell count [%] | cell viability [%] | morphology score | phospholipidosis EC50 [µM]
A549-ACE2 [1], 24 h | – | – | – | – | 3.13
A549-ACE2 [1], 48 h | – | – | – | – | 22.1
A549-ACE2 [1], 72 h | – | – | – | – | 17.3
Caco-2 [5], 1 nM | – | – | 97.6 | – | –
Caco-2 [5], 10 nM | – | – | 102 | – | –
Caco-2 [5], 100 nM | – | – | 104 | – | –
Caco-2 [5], 1000 nM | – | – | 98.8 | – | –
Caco-2 [5], 10000 nM | – | – | 68.2 | – | –
Calu-3 [4], 1 nM | – | – | 96.4 | – | –
Calu-3 [4], 10 nM | – | – | 95.7 | – | –
Calu-3 [4], 100 nM | – | – | 106 | – | –
Calu-3 [4], 1000 nM | – | – | 101 | – | –
Calu-3 [4], 10000 nM | – | – | 60.2 | – | –
HepG2 [6], 1 nM | – | – | 89.3 | – | –
HepG2 [6], 10 nM | – | – | 110 | – | –
HepG2 [6], 100 nM | – | – | 101 | – | –
HepG2 [6], 1000 nM | – | – | 108 | – | –
HepG2 [6], 10000 nM | – | – | 60.5 | – | –
U2OS [2], 1 nM | – | – | 99 | – | –
U2OS [2], 10 nM | – | – | 94.6 | – | –
U2OS [2], 100 nM | – | – | 102 | – | –
U2OS [2], 1000 nM | – | – | 93.6 | – | –
U2OS [2], 10000 nM | – | – | 87.9 | – | –
Vero E6 [3], 1 nM | – | – | 88.3 | – | –
Vero E6 [3], 10 nM | – | – | 98.7 | – | –
Vero E6 [3], 100 nM | – | – | 92.1 | – | –
Vero E6 [3], 1000 nM | – | – | 92 | – | –
Vero E6 [3], 10000 nM | – | – | 86.8 | – | –
[7], 0.3 µM | – | – | – | -0.12 | –
[7], 3 µM | – | – | – | 0.71 | –
[7], 10 µM | – | – | – | 0.8 | –
[7], 30 µM | – | – | – | 0.25 | –
[8], 0.3 µM | – | 99 | – | – | –
[8], 3 µM | – | 117 | – | – | –
[8], 10 µM | – | 111 | – | – | –
[8], 30 µM | – | 58 | – | – | –
[10], 0.3 µM | 105 | – | – | – | –
[10], 3 µM | 44 | – | – | – | –
[10], 10 µM | 26 | – | – | – | –
[10], 30 µM | 26 | – | – | – | –

drug-induced phospholipidosis [%], A549-ACE2 [9]
Conditions | 0.3 µM | 0.833333 µM | 3.33333 µM | 6.66667 µM | 10 µM | 30 µM
24 h | 8.24 | 11.3 | 46.9 | 67.3 | 73.2 | 55.4
48 h | 5.48 | 4.12 | 27.6 | 52.1 | 76.4 | –
72 h | 5.22 | 0.608 | 24.1 | 42.2 | 62.6 | –

Conditions | drug sensitivity score | relative viability EC50 [µM]
Caco-2 [14] | 1.6 | –
Calu-3 [13] | 1.9 | –
HepG2 [15] | 1.5 | –
U2OS [11] | 0.3 | –
U2OS [16] | – | > 10
Vero E6 [12] | 0 | –
Vero E6 [17] | – | > 10

CC(=O)[O-].CC(=O)[O-].N.NC1CCCCC1.[Cl-].[Cl-].[Pt+4] [satraplatin]
Conditions | SARS-CoV-2 infection rate, [10] [%] | cell count, [8] [%] | cell viability, Caco-2 [5] [%] | cell viability, Calu-3 [4] [%] | cell viability, HepG2 [6] [%] | cell viability, U2OS [2] [%] | cell viability, Vero E6 [3] [%] | morphology score, [7]
1 nM | – | – | 95.7 | 113 | 105 | 104 | 106 | –
10 nM | – | – | 99.7 | 119 | 96.5 | 109 | 103 | –
100 nM | – | – | 93.5 | 96.6 | 102 | 103 | 93.4 | –
0.1 µM | 107 | 107 | – | – | – | – | – | 0.11
0.3 µM | 108 | 94 | – | – | – | – | – | -0.19
1000 nM | – | – | 93.3 | 94.8 | 73.8 | 105 | 91.7 | –
1 µM | 90 | 98 | – | – | – | – | – | 0.26
3 µM | 97 | 93 | – | – | – | – | – | 0.04
10000 nM | – | – | 42 | 69 | 36.1 | 8.5 | 68.1 | –

drug-induced phospholipidosis [%], A549-ACE2 [9]
Conditions | 0.3 µM | 0.833333 µM | 3.33333 µM | 6.66667 µM | 10 µM
24 h | 3.84 | 0.69 | 3.32 | 0.26 | 5.28
48 h | 3.35 | -1.19 | -0.57 | -1.29 | -2.3
72 h | 2.49 | -2.74 | 0.684 | – | –

Conditions | drug sensitivity score | relative viability EC50 [µM]
Caco-2 [14] | 4.3 | –
Caco-2 [18] | – | 2.21
Calu-3 [13] | 2.2 | –
HepG2 [15] | 7 | –
HepG2 [19] | – | 1.16
U2OS [11] | 4.7 | –
U2OS [16] | – | 3.44
Vero E6 [12] | 2.4 | –

NC(=O)C(c1ccccc1)(c1ccc(F)cc1)c1ccc(F)cc1 [senicapoc]
cell viability [%]
Conditions | Caco-2 [5] | Calu-3 [4] | HepG2 [6] | U2OS [2] | Vero E6 [3]
1 nM | 101 | 99 | 93.4 | 102 | 96.9
10 nM | 105 | 96.7 | 98.8 | 96.9 | 99.1
100 nM | 102 | 99 | 96.4 | 104 | 94.5
1000 nM | 92.4 | 102 | 95.5 | 98.8 | 97.3
10000 nM | 99.4 | 92.3 | 97.7 | 98.8 | 92.9

Conditions | drug sensitivity score | relative viability EC50 [µM]
Caco-2 [14] | 0 | –
Caco-2 [18] | – | > 10
Calu-3 [13] | 0 | –
Calu-3 [20] | – | > 10
HepG2 [15] | 0 | –
HepG2 [19] | – | > 10
U2OS [11] | 0 | –
U2OS [16] | – | > 10
Vero E6 [12] | 0 | –
Vero E6 [17] | – | > 10

N[C@@H](CC(=O)N1CCn2c(nnc2C(F)(F)F)C1)Cc1cc(F)c(F)cc1F [sitagliptin]
cell viability [%]
Conditions | Caco-2 [5] | Calu-3 [4] | HepG2 [6] | U2OS [2] | Vero E6 [3]
1 nM | 108 | 107 | 89.2 | 97.5 | 97.7
10 nM | 99.5 | 100 | 98.9 | 94.6 | 106
100 nM | 97.1 | 99.5 | 91.1 | 97.4 | 90.7
1000 nM | 102 | 106 | 97.5 | 94.8 | 107
10000 nM | 84.1 | 97.7 | 88.6 | 97.7 | 102

Conditions | drug sensitivity score | relative viability EC50 [µM]
Caco-2 [14] | 0.2 | –
Caco-2 [18] | – | > 10
Calu-3 [13] | 0 | –
Calu-3 [20] | – | > 10
HepG2 [15] | 0 | –
HepG2 [19] | – | > 10
U2OS [11] | 0 | –
U2OS [16] | – | > 10
Vero E6 [12] | 0 | –
Vero E6 [17] | – | > 10

NCCCNCCCCNCCCN [spermine]
cell viability [%]
Conditions | Caco-2 [5] | Calu-3 [4] | HepG2 [6] | U2OS [2] | Vero E6 [3]
1 nM | 90.2 | 99.2 | 93.6 | 96.5 | 95.3
10 nM | 124 | 101 | 98.4 | 96.3 | 94.1
100 nM | 93.5 | 81.9 | 104 | 96.1 | 95.8
1000 nM | 98 | 99.2 | 93.1 | 96.8 | 98.6
10000 nM | 96.7 | 104 | 94.3 | 103 | 106

Conditions | drug sensitivity score | relative viability EC50 [µM]
Caco-2 [14] | 0 | –
Caco-2 [18] | – | > 10
Calu-3 [13] | 0 | –
Calu-3 [20] | – | > 10
HepG2 [15] | 0 | –
HepG2 [19] | – | > 10
U2OS [11] | 0 | –
U2OS [16] | – | > 10
Vero E6 [12] | 0 | –
Vero E6 [17] | – | > 10

Nc1ccc(S(=O)(=O)Nc2ccnn2-c2ccccc2)cc1 [sulfaphenazole]
cell viability [%]
Conditions | Caco-2 [5] | Calu-3 [4] | HepG2 [6] | U2OS [2] | Vero E6 [3]
1 nM | 97.5 | 97.2 | 102 | 97.4 | 93.1
10 nM | 100 | 100 | 99.5 | 97.8 | 102
100 nM | 102 | 101 | 85.5 | 100 | 88.4
1000 nM | 96.1 | 104 | 112 | 99.4 | 99.5
10000 nM | 94 | 97.2 | 103 | 101 | 108

Conditions | drug sensitivity score | relative viability EC50 [µM]
Caco-2 [14] | 0 | –
Caco-2 [18] | – | > 10
Calu-3 [13] | 0 | –
Calu-3 [20] | – | > 10
HepG2 [15] | 0 | –
HepG2 [19] | – | > 10
U2OS [11] | 0 | –
U2OS [16] | – | > 10
Vero E6 [12] | 0 | –
Vero E6 [17] | – | > 10
